What all share (type): functional, cell-based
One assay deals with NCI-H460. Description: Cytotoxicity against human NCI-H460 cells assessed as reduction in cell viability after 48 hrs by MTT assay. Particulars: NCI-H460, 48 h. (Tetrazolium assays rely on reduction of a dye to a coloured formazan, in cell work by metabolically active cells.)
The next assay concerns SW-620. Kind of assay: Cytotoxicity against human SW620 cells assessed as reduction in cell viability after 48 hrs by MTT assay. Particulars: SW-620, 48 h.
For another assay, the system named is HepG2. Kind of assay: Cytotoxicity against human HepG2 cells assessed as reduction in cell viability after 48 hrs by MTT assay. As to conditions: HepG2, 48 h.
In a further assay the test system is L1210. Kind of assay: Cytotoxicity against mouse L1210 cells assessed as reduction in cell viability.
The next assay has as its system KB. Description: Cytotoxicity against human KB cells assessed as reduction in cell viability.

By IC50 is commonly meant the concentration that gives 50% inhibition.

On to `CCC(=O)O[C@@H]1C[C@H]2C(=O)OC[C@H]2[C@@]2(C)[C@H]1[C@@]1(C)CCCC(C)(C)[C@@H]1C[C@H]2OC(=O)CC(C)C`, for which the IC50 in the assay on NCI-H460, in the assay with SW-620 and in the assay on HepG2 was > 30 µM throughout.
Consider `CC(=O)O[C@@H]1C[C@H]2C(C)(C)CCC[C@]2(C)[C@H]2CC[C@H]3C(=O)OC[C@H]3[C@@]21C`, for which the IC50 in the assay with L1210 amounted to 6.1 µM; in the assay with KB, 44.1 µM.
For the compound `CC1(C)CCC[C@]2(C)[C@H]3CC[C@H]4C(=O)OC[C@H]4[C@]3(C)CC[C@@H]12`, the results for the half-inhibitory concentration (IC50) in the assay with L1210 and in the assay with KB were 16.4 µM and 30.2 µM, respectively.
Regarding `CC(=O)OC[C@]12CCCC(C)(C)[C@@H]1CC[C@@]1(C)[C@@H]3COC(=O)[C@@H]3C[C@H](OC(C)=O)[C@@H]12`, the half-inhibitory concentration (IC50) in the assay with NCI-H460, in the assay on SW-620 and in the assay with HepG2 was > 30 µM throughout.
With `CCC(=O)OC[C@]12CCCC(C)(C)[C@@H]1CC[C@@]1(C)[C@@H]3COC(=O)[C@@H]3[C@@H](OC(C)=O)C[C@@H]12`, the IC50 with NCI-H460, in the assay on SW-620 and with HepG2 was > 30 µM throughout.
In the case of `CCC(=O)OC[C@]12CCCC(C)(C)[C@@H]1CC[C@@]1(C)[C@@H]3COC(=O)[C@@H]3C[C@H](OC(C)=O)[C@@H]12`, the 50% inhibitory concentration (IC50) in the assay on NCI-H460, with SW-620 and with HepG2 was > 30 µM in each case.
Consider `CCC(=O)OC[C@]12CCCC(C)(C)[C@@H]1C[C@@H](OC(=O)CC(C)C)[C@@]1(C)[C@@H]3COC(=O)[C@@H]3C[C@H](O)[C@H]21`, for which the half-inhibitory concentration (IC50) in the assay with NCI-H460, in the assay with SW-620 and in the assay with HepG2 was > 30 µM in each case.
Turning to `CC(=O)OC[C@]12CCCC(C)(C)[C@@H]1CC[C@@]1(C)[C@@H]3COC(=O)[C@@H]3[C@@H](OC(C)=O)C[C@@H]12`, the IC50 with NCI-H460, with SW-620 and with HepG2 was > 30 µM each time.

Values taken from ChEMBL document CHEMBL4033603, “Spongian-16-one Diterpenes and Their Anatomical Distribution in the Australian Nudibranch Goniobranchus collingwoodi” (J Nat Prod, 2017).
